Data: patent US11780841B2, “3,6-methano-1H-pyrrolo[3,2-b]pyridine and 3,6-methano-1H-pyrrolo[3,2-c]pyridine compounds and medicaments using same” (priority 2018, dated 2023)
Like-named read-outs stand apart in the source and are kept apart here.

Tested on: recombinant rabies virus 1088 strain expressing Gaussia Luciferase (GLuc) (1088/GLuc)
Assay type: cell-based

Compound | IC50 (read-out: Anti-rabies activity) [µM] | IC50 (read-out: IC50) [µM]
CC(C)CNC(=O)[C@]12NC[C@@H]3C[C@H]1CN(CC(C)C)[C@H]2[C@@H]3Cc1ccccc1 (relative stereo) [IB-3] | 10 to 30 | 19.6
CC(C)CNC(=O)[C@]12NC[C@@H]3C[C@H]1CN(Cc1ccccc1)[C@H]2[C@@H]3CC(C)C (relative stereo) [IB-4] | 10 to 30 | 19.2
CC(C)C[C@@H]1[C@@H]2CN[C@@]3(C(=O)NCc4ccccc4)[C@@H](C2)CN(CC(C)C)[C@@H]13 (relative stereo) [IB-5] | 10 to 30 | 18.2
CC(C)CCN1C[C@@H]2C[C@H]3CN[C@]2(C(=O)NCc2ccccc2)[C@@H]1[C@@H]3Cc1ccccc1 (relative stereo) [IB-9] | 10 to 30 | 17
CC(C)C[C@@H]1[C@@H]2CN[C@@]3(C(=O)NCCc4ccccc4)[C@@H](C2)CN(Cc2ccccc2)[C@@H]13 (relative stereo) [IB-12] | 10 to 30 | 15.5
Cc1cccc(C[C@@H]2[C@@H]3CN[C@@]4(C(=O)NCc5ccccc5)[C@@H](C3)CN(CC(C)C)[C@@H]24)c1 (relative stereo) [IB-13] | 10 to 30 | 14.3
Cc1cccc(CNC(=O)[C@]23NC[C@@H]4C[C@H]2CN(CC(C)C)[C@H]3[C@@H]4Cc2ccccc2)c1 (relative stereo) [IB-15] | 10 to 30 | 15.9
O=C(NCc1ccccc1)[C@]12NC[C@H]3C[C@H]1CN(Cc1cccc4ccccc14)[C@H]2[C@@H]3Cc1ccccc1 (relative stereo) [IB-42, (3S*,3aS*,6S*,7R*,7aS*)-N,7-dibenzyl-1-(naphthalen-1-ylmethyl)octahydro-3aH-3,6-methanopyrrolo[3,2-b]pyridine-3a-carboxamide] | 10 to 30 | –
CC(C)C[C@@H]1[C@H]2CN[C@@]3(C(=O)NCc4cccc5ccccc45)[C@@H](C2)CN(CC(N)=O)[C@@H]13 (relative stereo) [IB-81] | 10 to 30 | –
NC(=O)CN1C[C@@H]2C[C@@H]3CN[C@]2(C(=O)NCc2cccc4ccccc24)[C@@H]1[C@@H]3Cc1ccccc1 (relative stereo) [IB-82] | 10 to 30 | –
NC(=O)CN1C[C@@H]2C[C@@H]3CN[C@]2(C(=O)NCc2cccc4ccccc24)[C@@H]1[C@@H]3Cc1ccc(O)cc1 (relative stereo) [IB-83] | 10 to 30 | –
CC(C)C[C@@H]1[C@@H]2CN[C@@]3(C(=O)NCc4cccc5ccccc45)[C@@H](C2)CN(CCCNC(=N)N)[C@@H]13 (relative stereo) [IB-164, (3S*,3aS*,6R*,7R*,7aS*)-1-(3-guanidinopropyl)-7-isobutyl-N-(naphthalen-1-ylmethyl)octahydro-3aH-3,6-methanopyrrolo[3,2-b]pyridine-3a-carboxamide] | < 5 | –
CCN1C[C@H]2C[C@H]3CN(Cc4ccc(C)cc4)[C@@H]([C@@H]2CC(C)C)[C@]31C(=O)NCc1ccccc1 (relative stereo) [IB-880] | < 5 | –
Cc1ccc(CN2C[C@@H]3C[C@@H]4CN(CC(C)C)[C@]3(C(=O)NCc3ccccc3)[C@@H]2[C@@H]4CC(C)C)cc1 (relative stereo) [IB-881] | < 5 | –
Cc1ccc(CN2C[C@@H]3C[C@@H]4CN(C(=O)CC(C)C)[C@]3(C(=O)NCc3ccccc3)[C@@H]2[C@@H]4CC(C)C)cc1 (relative stereo) [IB-883] | < 5 | –
COC(=O)N1C[C@H]2C[C@H]3CN(Cc4ccc(C)cc4)[C@@H]([C@@H]2CC(C)C)[C@]31C(=O)NCc1ccccc1 (relative stereo) [IB-885] | 5 to 10 | –
Cc1ccc(CN2C[C@@H]3C[C@@H]4CN(C(=O)OCC(C)C)[C@]3(C(=O)NCc3ccccc3)[C@@H]2[C@@H]4CC(C)C)cc1 (relative stereo) [IB-886] | 5 to 10 | –
Cc1ccc(CN2C[C@@H]3C[C@@H]4CN(C(N)=O)[C@]3(C(=O)NCc3ccccc3)[C@@H]2[C@@H]4CC(C)C)cc1 (relative stereo) [IB-888] | 10 to 30 | –
CC(C)C[C@@H]1[C@H]2CN[C@@]3(C(=O)NCc4cccc(O)c4)[C@@H](C2)CN(Cc2ccc(N(C)C)cc2)[C@@H]13 (relative stereo) [IB-891] | 10 to 30 | –
CC(C)C[C@@H]1[C@H]2CN[C@@]3(C(=O)NCc4ccc(O)cc4)[C@@H](C2)CN(Cc2ccc(N(C)C)cc2)[C@@H]13 (relative stereo) [IB-892] | 10 to 30 | –
CC(C)CN1C[C@H]2C[C@]3(C(=O)NCc4ccccc4)NC[C@H]2[C@H]1[C@H]3Cc1ccccc1 (relative stereo) [IF-1, (3S*,3aS*,6S*,7R*,7aS*)-N,7-dibenzyl-1-isobutyloctahydro-6H-3,6-methanopyrrolo[3,2-c]pyridine-6-carboxamide] | 10 to 30 | 12.6
CC(C)CNC(=O)[C@@]12C[C@@H]3CN(Cc4ccccc4)[C@@H]([C@@H]3CN1)[C@H]2Cc1ccccc1 (relative stereo) [IF-6] | 10 to 30 | 16.3
CC(C)C[C@@H]1[C@@H]2[C@@H]3CN[C@@]1(C(=O)NCc1ccccc1)C[C@@H]3CN2Cc1ccccc1 (relative stereo) [IF-7] | 5 to 10 | 8.5
CC(C)CCN1C[C@H]2C[C@]3(C(=O)NCc4ccccc4)NC[C@H]2[C@H]1[C@H]3Cc1ccccc1 (relative stereo) [IF-9] | 10 to 30 | 15.6
CC(C)CN1C[C@H]2C[C@]3(C(=O)NCc4ccccc4)NC[C@H]2[C@H]1[C@H]3CCc1ccccc1 (relative stereo) [IF-11] | 10 to 30 | 17.5
Cc1cccc(C[C@@H]2[C@@H]3[C@@H]4CN[C@@]2(C(=O)NCc2ccccc2)C[C@@H]4CN3CC(C)C)c1 (relative stereo) [IF-13] | 10 to 30 | 13.1

Compound | IC50 (read-out: Anti-rabies activity) [µM] | IC50 (read-out: IC50) [µM]
Cc1ccc(C[C@@H]2[C@@H]3[C@@H]4CN[C@@]2(C(=O)NCc2ccccc2)C[C@@H]4CN3CC(C)C)cc1 (relative stereo) [IF-14] | 10 to 30 | 14.1
Cc1cccc(CNC(=O)[C@@]23C[C@@H]4CN(CC(C)C)[C@@H]([C@@H]4CN2)[C@H]3Cc2ccccc2)c1 (relative stereo) [IF-15] | 10 to 30 | 17.1
CC(C)C[C@@H]1[C@@H]2[C@@H]3CN[C@@]1(C(=O)NCc1ccc(Cl)c(Cl)c1)C[C@@H]3CN2Cc1ccccc1 (relative stereo) [IF-20] | 10 to 30 | 11.6
CC(C)CN1C[C@H]2C[C@]3(C(=O)NCc4ccccc4)NC[C@H]2[C@H]1[C@H]3CC1CCCCC1 (relative stereo) [IF-38] | 10 to 30 | –
O=C(NCc1ccccc1)[C@@]12C[C@@H]3CN(Cc4cccc5ccccc45)[C@@H]([C@@H]3CN1)[C@H]2Cc1ccccc1 (relative stereo) [IF-42] | 10 to 30 | –
CCC1N[C@@]2(C(=O)NCc3ccccc3)C[C@@H]3CN(CC(C)C)[C@@H]([C@H]13)[C@H]2Cc1ccccc1 (relative stereo) [IF-69] | 10 to 30 | 16.5
CC(C)C[C@@H]1[C@@H]2[C@@H]3CN[C@@]1(C(=O)NCc1cccc4ccccc14)C[C@@H]3CN2CC(N)=O (relative stereo) [IF-81] | 10 to 30 | –
NC(=O)CN1C[C@H]2C[C@]3(C(=O)NCc4cccc5ccccc45)NC[C@H]2[C@H]1[C@H]3Cc1ccccc1 (relative stereo) [IF-82] | 10 to 30 | –
CC(C)CC[C@@H]1[C@@H]2[C@@H]3CN[C@@]1(C(=O)NCc1cccc4ccccc14)C[C@@H]3CN2CC(N)=O (relative stereo) [IF-84] | 10 to 30 | –
NC(=O)CN1C[C@H]2C[C@]3(C(=O)NCc4cccc5ccccc45)NC[C@H]2[C@H]1[C@H]3CCc1ccccc1 (relative stereo) [IF-85] | 10 to 30 | –
NC(=O)CN1C[C@H]2C[C@]3(C(=O)NCCc4ccccc4)NC[C@H]2[C@H]1[C@H]3Cc1cccc2ccccc12 (relative stereo) [IF-90] | 10 to 30 | –
NC(=O)CN1C[C@H]2C[C@]3(C(=O)NCc4cccc5ccccc45)NC[C@H]2[C@H]1[C@H]3Cc1cccc2ccccc12 (relative stereo) [IF-91] | < 5 | –
CC(C)CC[C@@H]1[C@@H]2[C@@H]3CN[C@@]1(C(=O)NCc1ccc(F)cc1)C[C@@H]3CN2CC(N)=O (relative stereo) [IF-95] | 10 to 30 | –
O=C(NCc1ccccc1)[C@@]12C[C@@H]3CN(Cc4cccc5ccccc45)[C@@H]([C@@H]3CN1)[C@H]2Cc1ccc(O)cc1 (relative stereo) [IF-505] | < 5 | –
O=C(NCc1ccc(F)cc1)[C@@]12C[C@@H]3CN(CCO)[C@@H]([C@@H]3CN1)[C@H]2Cc1ccccc1 (relative stereo) [IF-508] | 10 to 30 | –
CCCCCCNC(=O)[C@@]12C[C@@H]3CN(CC4CCCCC4)[C@@H]([C@@H]3CN1)[C@H]2Cc1ccc(O)cc1 (relative stereo) [IF-514] | < 5 | –
O=C(NCc1ccc(F)cc1)[C@@]12C[C@@H]3CN(CCO)[C@@H]([C@@H]3CN1)[C@H]2CCc1ccccc1 (relative stereo) [IF-516] | < 5 | –
CC(C)CN1C[C@H]2C[C@]3(C(=O)NCc4ccc(F)cc4)NC[C@H]2[C@H]1[C@H]3CCc1ccccc1 (relative stereo) [IF-525] | 10 to 30 | –
CC(C)C[C@@H]1[C@@H]2[C@@H]3CN[C@@]1(C(=O)NCc1cccc4ccccc14)C[C@@H]3CN2CCO (relative stereo) [IF-542] | < 5 | –
CC(C)CCN1C[C@H]2C[C@]3(C(=O)NCCc4ccccc4)NC[C@H]2[C@H]1[C@H]3Cc1ccc(O)cc1 (relative stereo) [IF-545] | 10 to 30 | –
CCCCCCNC(=O)[C@@]12C[C@@H]3CN(CCC(C)C)[C@@H]([C@@H]3CN1)[C@H]2CC(C)C (relative stereo) [IF-546] | 10 to 30 | –
CC(C)CCN1C[C@H]2C[C@]3(C(=O)NCc4ccc(F)cc4)NC[C@H]2[C@H]1[C@H]3Cc1ccccc1 (relative stereo) [IF-547] | < 5 | –
CC(C)CCN1C[C@H]2C[C@]3(C(=O)NCc4ccc(F)cc4)NC[C@H]2[C@H]1[C@H]3CC(C)C (relative stereo) [IF-548] | 10 to 30 | –
CCCCCCNC(=O)[C@@]12C[C@@H]3CN(Cc4ccccc4)[C@@H]([C@@H]3CN1)[C@H]2CC(C)C (relative stereo) [IF-560] | < 5 | –
O=C(NCc1ccc(F)cc1)[C@@]12C[C@@H]3CN(Cc4ccccc4)[C@@H]([C@@H]3CN1)[C@H]2Cc1ccccc1 (relative stereo) [IF-561] | < 5 | –
O=C(NCc1ccc(O)cc1)[C@@]12C[C@@H]3CN(Cc4ccccc4)[C@@H]([C@@H]3CN1)[C@H]2CCc1ccccc1 (relative stereo) [IF-565] | < 5 | –
